Results reported in patent publication US8921516B2, “Synthetic, defined fibronectin mimetic peptides and surfaces modified with the same” (Corning Incorporated, priority 2010, dated 2014).

How the values were obtained:
LNCaP cells [1] = test: MTS assay quantification of LNCaP cell attachment; type: cell-based, human; details: 24 hr post-seeding, FIG. 2, treated surface vs BD BioCoat fibronectin
Procedure: (§1) To explore the ability of a surface modified by the compound of the present invention to mimic one or more functional characteristics of a fibronectin coated surface, cells were seeded and monitored on both such surfaces under the same culture conditions. In brief, LNCaP cells, MIA-PaCa-2, A-172, or RKO cells from ATCC were cultured according to supplier's instructions. LNCaP were cultured in RPMI-1640 Medium (ATCC Catalog No. 30-2001) supplemented with 10% fetal bovine serum. MIA-PaCa-2 and A-172 cells were grown in DMEM (Invitrogen cat #11885-084) supplemented with 10% fetal bovine serum. RKO cells were cultured in EMEM (ATCC cat#30-2003) supplemented with 10% fetal bovine serum. Cells were cultured at 37° C. in a humidified incubator with 5% CO2. For seeding, media was removed, cells were washed with PBS, and 3 ml of 0.25% Trypsin-EDTA was added to the cells in T-75 flask. Flasks were examined under the microscope, once cells detached from the surface, 10 ml culture media was added to neutralize Trypsin. Cells were transferred to a 15 ml. BD Falcon tube and centrifuged at 200×g for 10 min. […]
In addition to the aforementioned visual analysis, MTS analysis was carried out to quantify the degree of cell attachment. […] Following incubation, 0.1 ml media was transferred to BD Falcon™ 96 well plate and absorbance was measured at 490 nm.

RKO cells = test: Confluence quantification by IncuCyte of RKO cell attachment; type: cell-based, human; details: FIG. 3, treated surface vs BD BioCoat fibronectin
Procedure: as §1, with “min. Supernatant was removed and the cell pellet washed once with DMEM (Invitrogen cat #11885-084) having 200 microgram/ml BSA. Cells were resuspended in DMEM having 200 microgram/ml BSA and seeded at 50,000 cells/cm^2 in 1.0 ml media per well of a 24 well plate.” for “min.”

LNCaP cells [2] = test: LNCaP cell attachment and spreading on modified surface, visualized by microscope; type: cell-based, human; details: 24 hr post-seeding, microscope images (FIG. 1), surface modified by compound vs BD BioCoat fibronectin
Procedure: as §1, with “min. Supernatant was removed and the cell pellet washed once with DMEM (Invitrogen cat #11885-084) having 200 microgram/ml BSA. Cells were resuspended in DMEM having 200 microgram/ml BSA and seeded at 50,000 cells/cm^2 in 1.0 ml media per well of a 24 well plate.” for “min.”

[3] = test system: A-172 human glioblastoma cancer cells; test: A-172 cell attachment to peptide coated surfaces (images and MTS assay); type: cell-based; details: A-172 cells, images and MTS assay (FIG. 4A and FIG. 4B); compared with BD BioCoat fibronectin surface
Procedure: FIG. 4A is an image of A-172 human glioblastoma cancer cells attached to a surface that has a coating thereon of […] (SEQ ID NO: 8) referred to therein as “DA2”, […] (SEQ ID NO: 9) referred to therein as “DA4”, […] (SEQ ID NO: 10) referred to therein as “DA1”, […] (SEQ ID NO: 11) referred to therein as “DA3”.
To explore the ability of a surface modified by the compound of the present invention to mimic one or more functional characteristics of a fibronectin coated surface, cells were seeded and monitored on both such surfaces under the same culture conditions. In brief, LNCaP cells, MIA-PaCa-2, A-172, or RKO cells from ATCC were cultured according to supplier's instructions. LNCaP were cultured in RPMI-1640 Medium (ATCC Catalog No. 30-2001) supplemented with 10% fetal bovine serum. MIA-PaCa-2 and A-172 cells were grown in DMEM (Invitrogen cat #11885-084) supplemented with 10% fetal bovine serum. RKO cells were cultured in EMEM (ATCC cat#30-2003) supplemented with 10% fetal bovine serum. Cells were cultured at 37° C. in a humidified incubator with 5% CO2. For seeding, media was removed, cells were washed with PBS, and 3 ml of 0.25% Trypsin-EDTA was added to the cells in T-75 flask. Flasks were examined under the microscope, once cells detached from the surface, 10 ml culture media was added to neutralize Trypsin. Cells were transferred to a 15 ml. BD Falcon tube and centrifuged at 200×g for 10 min. Supernatant was removed and the cell pellet washed once with DMEM (Invitrogen cat #11885-084) having 200 microgram/ml BSA. Cells were resuspended in DMEM having 200 microgram/ml BSA and seeded at 50,000 cells/cm^2 in 1.0 ml media per well of a 24 well plate. The culture surface was either a surface modified by the compound […] (SEQ ID NO: 7) or BD BioCoat fibronectin which served as a positive control. Additionally, BD tissue culture treated surface served as negative control. Cells were incubated for 24 hr at 37° C. in a humidified incubator with 5% CO2.
In addition to the aforementioned visual analysis, MTS analysis was carried out to quantify the degree of cell attachment. In brief, media was removed by inverting the plate and 300 μl complete media containing MTS (Promega cat #G3582) was added to each well of a 24 well plate. Cells were incubated for 1 hr at 37° C. in a humidified incubator at 5% CO2. Following incubation, 0.1 ml media was transferred to BD Falcon™ 96 well plate and absorbance was measured at 490 nm.

A-172 cells = test: Confluence quantification by IncuCyte of A-172 cell attachment; type: cell-based, human; details: FIG. 3, treated surface vs BD BioCoat fibronectin
Procedure: To explore the ability of a surface modified by the compound of the present invention to mimic one or more functional characteristics of a fibronectin coated surface, cells were seeded and monitored on both such surfaces under the same culture conditions. In brief, LNCaP cells, MIA-PaCa-2, A-172, or RKO cells from ATCC were cultured according to supplier's instructions. LNCaP were cultured in RPMI-1640 Medium (ATCC Catalog No. 30-2001) supplemented with 10% fetal bovine serum. MIA-PaCa-2 and A-172 cells were grown in DMEM (Invitrogen cat #11885-084) supplemented with 10% fetal bovine serum. RKO cells were cultured in EMEM (ATCC cat#30-2003) supplemented with 10% fetal bovine serum. Cells were cultured at 37° C. in a humidified incubator with 5% CO2. For seeding, media was removed, cells were washed with PBS, and 3 ml of 0.25% Trypsin-EDTA was added to the cells in T-75 flask. Flasks were examined under the microscope, once cells detached from the surface, 10 ml culture media was added to neutralize Trypsin. Cells were transferred to a 15 ml. BD Falcon tube and centrifuged at 200×g for 10 min. Supernatant was removed and the cell pellet washed once with DMEM (Invitrogen cat #11885-084) having 200 microgram/ml BSA. Cells were resuspended in DMEM having 200 microgram/ml BSA and seeded at 50,000 cells/cm^2 in 1.0 ml media per well of a 24 well plate. […]

Row | Sequence | cell attachment and spreading [3] | other results
1 | KSGRPREDRVPHSRNSITLTNSGSGSGSGSGRGDSP (two regions of a fibronectin cell-binding domain joined by a flexible linker) [SEQ ID NO: 7] | supported cell attachment and spreading similar to a BD BioCoat fibronectin surface | LNCaP cell attachment (MTS assay, absorbance at 490 nm) (LNCaP cells [1]): comparable; confluence quantification by IncuCyte (RKO cells): comparable; cell attachment and spreading (LNCaP cells [2]): comparable; confluence quantification by IncuCyte (A-172 cells): comparable
2 | KSGRARADRVPHSRNTITLTNGGSGGSGGSGRGDSP (two regions of a fibronectin cell-binding domain joined by a flexible linker) [SEQ ID NO: 11] | supported cell attachment and spreading similar to a BD BioCoat fibronectin surface | –
3 | KSGRGRGDRVPHSRNGITLTNSGSGSGSGSGRGDSP (two regions of a fibronectin cell-binding domain joined by a flexible linker) [SEQ ID NO: 12] | supported cell attachment and spreading similar to a BD BioCoat fibronectin surface | –
4 | KSGRPREDRVPHSRNSITLTNGGGSGGGSGGGRGDSP (two regions of a fibronectin cell-binding domain joined by a flexible linker) [SEQ ID NO: 9] | supported cell attachment and spreading similar to a BD BioCoat fibronectin surface | –
5 | KSGRARADRVPHSRNTITLTNSGSGSGSGSGRGDSP (two regions of a fibronectin cell-binding domain joined by a flexible linker) [SEQ ID NO: 10] | supported cell attachment and spreading similar to a BD BioCoat fibronectin surface | –
6 | KSGRPREDRVPHSRNSITLTNSGTGSGTGSGRGDSP (two regions of a fibronectin cell-binding domain joined by a flexible linker) [SEQ ID NO: 8] | supported cell attachment and spreading similar to a BD BioCoat fibronectin surface | –
